Data reported in US20120190707A1, “SELECTIVE INHIBITORS OF AKT AND METHODS OF USING SAME” (priority 2008, published 2012).

Experiments:
ATM-CHK2 axis = experiment: ATM and CHK2 phosphorylation (DNA damage response) western analysis in UACC903 cells; type: cell-based, human
Description: UACC903 melanoma cells were exposed to vehicle control or 10 μM BI-69A11 for 1 h prior to γ-irradiation (10 Gray). Cells were harvested at the indicated time points post-irradiation and whole cell lysates were subjected to western analysis for phosphorylated ATM, total ATM, phosphorylated Chk2, and PLCγ (as loading control).
FIG. 14 is an assessment of BI-69A11 analogs on Chk2 phosphorylation. UACC903 melanoma cells were exposed to vehicle control, 10 μM BI-69A11, or 10 μM analog for 2 h. Cells were harvested and whole cell lysates were subjected to western analysis for phosphorylated Chk2 and PLCγ (as loading control).
(§1) To accomplish this, we g-irradiated vehicle- or BI69A11-treated cells and examined ATM and CHK2 phosphorylation, a well-characterized surrogate of activation (FIG. 13). In vehicle-treated cells, g-irradiation led to the robust phosphorylation of ATM and CHK2.
We next examined the panel of BI-69A11 analogs for their ability to stimulate CHK2 phosphorylation in UACC903 cells (FIG. 14).
For western blotting techniques, cells were lysed in RIPA buffer containing 50 mM TrisHCl pH7.4, 150 mM NaCl, 2 mM EDTA, 1% NP-40, 0.1% SDS. The protein concentration was estimated using the Coomassie Protein assay kit (Thermo Scientific, Rockford, Ill., USA). Equal concentrations of cell lysate (30-50 ug) were resolved on a 10% polyacrylamide gel and transferred onto Nitrocellulose membrane (GE Amersham). Membranes were blocked for 1-2 hours in either 3% BSA or 5% nonfat dried milk in Tris-buffered saline containing 0.05% Tween 20. Primary antibody incubations were performed overnight at 4° C. with shaking. The blots were washed followed by incubation with a secondary antibody incubation for 1 hour at room temperature. After washing, the blots were scanned on the Odyssey Licor scanner at the appropriate wavelength and the image was captured using the Odyssey software.

AKT transcripts = experiment: QPCR analysis of AKT transcripts in melanoma cells; type: cell-based; settings: data not shown
Source text: Given the effect of BI-69A11 on the level of AKT protein, we assessed the possible mechanisms underlying such an effect. First, we assessed whether BI-69A11 affects the level of AKT transcripts. RNA prepared from the melanoma cells, with and without treatment with BI-69A11, was subjected to QPCR analysis.

PRAS40 = experiment: IGF-1 induced PRAS40 phosphorylation by western analysis in 29-1 cells; type: cell-based, human; settings: IGF-1 (20 ng/mL), 10.micro.M
Description: FIG. 6 describes the effect of BI-69A11 on phosphorylation and total levels of AKT in UACC 903 (PTEN−) cells. (A) UACC903 and the modified clone 29-1 (PTEN+) cells were exposed to 10 micro.M BI-69A11 and 50 micro.M LY294002 (a PI3K inhibitor) and the levels of pAKT473 and total AKT determined by western analysis. […] (SF=Serum Free). (B) BI-69A11 inhibits PRAS40 phosphorylation. UACC903 melanoma cells or 29-1 cells (PTEN+) were subjected to treatment with IGF-1 (20 ng/mL) and the level of PRAS40 phosphorylation was assessed. […] The cells were collected, lysed and levels of pPRAS40 and total PRAS40 determined by western analysis. (C) AKT association with HSP90 is inhibited by BI-69A11. Human melanoma cells were treated with BI-69A11 (10.micro.M) or DMSO control for 4 h, followed by protein preparation and immunoprecipitation using antibodies to pan-AKT. MG132 treatment, when used, initiated 1 h prior to treatment and lasted up to the preparation of proteins (total of 5 h). The right panel depicts analysis of total lysates.
We next tested the effect of BI-69A11 in 29-1 cells which are derivative of UAC903 that were reconstituted with chromosome 10 carrying the wt PTEN. Thus, 29-1 cells no longer express a constitutively active form of AKT (Robertson et al., 1998). To activate AKT, 29-1 cells were treated with IGF-1 (FIG. 6B). […]

p38.alpha = p38.alpha (Homo sapiens, UniProt Q16539); experiment: Activity of other protein kinases: p38.alpha; type: biochemical; settings: 100 micro.M
Sequence of p38.alpha (Q16539 whole entry): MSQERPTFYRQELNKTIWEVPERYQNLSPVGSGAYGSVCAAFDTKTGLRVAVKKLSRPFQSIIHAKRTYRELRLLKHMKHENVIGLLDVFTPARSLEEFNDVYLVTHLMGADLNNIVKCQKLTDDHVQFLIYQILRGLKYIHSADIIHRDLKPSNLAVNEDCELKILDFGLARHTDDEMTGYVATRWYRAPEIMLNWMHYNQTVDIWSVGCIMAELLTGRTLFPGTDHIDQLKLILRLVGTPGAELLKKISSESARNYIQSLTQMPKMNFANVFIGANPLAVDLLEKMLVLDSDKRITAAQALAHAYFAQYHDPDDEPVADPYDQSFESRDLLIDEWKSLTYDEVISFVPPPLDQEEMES

c-Jun = experiment: Levels of HSP90 client protein c-Jun; type: cell-based; settings: data not shown
Source text: Among cellular proteins implicated in the regulation of AKT levels is the cellular chaperone HSP90. Inhibition of HSP90 chaperone function, as commonly achieved by the geldanamycin antibiotic, interferes with the conformational maturation and refolding of its associated proteins, thereby promoting their degradation (Munster et al., 2002; Neckers and Neckers, 2003). […] Thus we assessed whether association of AKT with HSP90 could be affected by BI-69A11. Immunoprecipitation of AKT from melanoma cells identified HSP90 in the immunoprecipitated material. Such association was however abolished following treatment with the BI-69A11 inhibitor (FIG. 6C). […] To this end, we also performed the experiment in the presence of the proteasome inhibitor MG132.

AKT [1] = experiment: AKT expression by western blot in MCF7 breast cancer cells; type: cell-based; settings: MCF7, 5 and 10 micro.M
Description: (§2) (A) MeWo melanoma cells growing in 60 mm plates were treated with the indicated concentration of the inhibitor for 4 h before proteins were prepared for western blot analysis using the indicated antibodies. Level of beta.actin was monitored as a control for protein loading. (B) Experiment was performed as indicated in panel A, except that cells were harvested after 24 h for analysis of cell death using trypan blue staining. (C) Melanoma (MeWo), prostate cancer (PC3) and breast cancer (MCF7) cells were treated with BI-69A11 at the indicated concentrations; levels of AKT phosphorylation or expression were assessed 4 h later. The level of beta.actin used as a control for protein loading. (D) Experiment was performed as indicated in panel C, except that cells were harvested after 4 h for analysis of cell death using trypan blue staining.
(§3) For western blotting techniques, cells were lysed in RIPA buffer containing 50 mM TrisHCl pH7.4, 150 mM NaCl, 2 mM EDTA, 1% NP-40, 0.1% SDS. The protein concentration was estimated using the Coomassie Protein assay kit (Thermo Scientific, Rockford, Ill., USA). Equal concentrations of cell lysate (30-50 ug) were resolved on a 10% polyacrylamide gel and transferred onto Nitrocellulose membrane (GE Amersham). Membranes were blocked for 1-2 hours in either 3% BSA or 5% nonfat dried milk in Tris-buffered saline containing 0.05% Tween 20. […]

CHK2 = CHK2 (Homo sapiens, UniProt O96017); experiment: Invitrogen SelectScreen Kinase Profiling Service; type: biochemical
Sequence of CHK2 (O96017 whole entry): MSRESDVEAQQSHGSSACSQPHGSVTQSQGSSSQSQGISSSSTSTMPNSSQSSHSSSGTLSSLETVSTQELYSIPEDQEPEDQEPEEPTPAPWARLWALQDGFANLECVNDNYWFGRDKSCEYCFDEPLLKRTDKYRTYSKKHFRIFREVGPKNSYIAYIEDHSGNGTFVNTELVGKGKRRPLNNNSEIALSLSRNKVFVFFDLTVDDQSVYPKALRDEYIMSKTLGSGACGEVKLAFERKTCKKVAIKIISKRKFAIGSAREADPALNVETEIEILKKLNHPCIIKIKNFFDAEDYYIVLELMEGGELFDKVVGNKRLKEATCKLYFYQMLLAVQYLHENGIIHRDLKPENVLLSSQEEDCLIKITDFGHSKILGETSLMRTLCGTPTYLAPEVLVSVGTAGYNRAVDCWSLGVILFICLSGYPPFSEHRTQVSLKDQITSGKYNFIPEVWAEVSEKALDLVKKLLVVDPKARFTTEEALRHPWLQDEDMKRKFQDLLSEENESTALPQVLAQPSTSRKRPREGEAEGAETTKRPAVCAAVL
Description: In addition to its inhibition of AKT, BI-69A11 was tested for inhibition of additional protein kinases using the Invitrogen SelectScreen Kinase Profiling Service. The Ser/Thr protein kinase, Checkpoint Kinase 2 (CHK2), is an important component in the cellular response to DNA damage. In response to genotoxic stresses such as g-irradiation, which causes double stranded DNA breaks, the Ataxia Telangiectasia Mutated (ATM) protein kinase is activated, which in turn phosphorylates a number of downstream effectors, such as CHK2. Activation of the ATM-CHK2 axis enforces the DNA damage checkpoint response, halting the cell cycle in order to initiate DNA repair.
as §1

AKT [2] = experiment: AKT phosphorylation and expression by western blot in PC3 prostate tumor cells; type: cell-based; settings: PC3, 5 and 10 micro.M
Description: as §2, §3

With `O=C(/C=C/c1nc2ccccc2[nH]1)c1c(O)nc2ccc(Cl)cc2c1-c1ccccc1` [Compound 2, (E)-3-(3-(1H-benzo[d]imidazol-2-yl)acryloyl)-6-chloro-4-phenylquinolin-2(1H)-one] the “ATM and CHK2 phosphorylation in the absence of radiation” value (ATM-CHK2 axis; 10 μM) was “leads to ATM and CHK2 phosphorylation”, the “ATM or CHK2 phosphorylation following g-irradiation” value (ATM-CHK2 axis; 10 μM for 1 h prior to γ-irradiation (10 Gray)) was “did not inhibit” and the “CHK2 phosphorylation / activation” value (ATM-CHK2 axis; 10 μM for 2 h) was “induced the activation of CHK2 to a similar extent”. For the same molecule, the “level of AKT transcripts” value (AKT transcripts) was “did not identify differences”, the “phosphorylation of PRAS40” value (PRAS40) was “effectively inhibited” and the “effect on p38.alpha activity” value (p38.alpha) was “did not affect”. The c-Jun protein levels (c-Jun) was “did not affect”, the AKT protein levels (AKT [1]) was “not affected” and the “kinase profiling result for CHK2” value (CHK2) was “possible target”. The AKT protein levels (AKT [2]) was “reduced levels of AKT protein” and the “basal level of AKT phosphorylation” value (AKT [2]; 4 h) was “effectively inhibited”.
